# Like-named read-outs stand apart in the source and are kept apart here. Positions of bridges follow the written chain, without caps; N, C: chain ends. Non-standard residues stand in square brackets, D forms with d. Residues, ends and D or L forms follow the SMILES beside them. Groups on a side chain read outwards from the residue. *: point of attachment. DOTA = O=C(O)CN1CCN(CC(=O)O)CCN(CC(=O)*)CCN(CC(=O)O)CC1; 2Nal = N[C@@H](Cc1ccc2ccccc2c1)C(=O)O; Lys(iPr) = CC(C)NCCCC[C@H](N)C(=O)O
# Columns and labels:
# [1] = tested on: Daudi Burkitt's lymphoma xenografts; test: Biodistribution in Daudi tumor-bearing mice; format: in vivo; conditions: Daudi xenograft bearing mice
# Description: (§1) For Daudi, Z138, GRANTA519 and Jeko1 xenografts, male NOD.Cg-Rag1^tm1MomII2rg^tm1Wjl/SzJ (NRG) mice were subcutaneously inoculated on the left flank with 5×10^6 cells (100 μL; 1:1 ratio of PBS/Matrigel) and tumors were grown to a size of 200-500 mm^3. For PC-3 xenografts, male NOD.Cg-Rag1^tm1MomII2rg^tm1Wjl/SzJ (NRG) mice were subcutaneously inoculated on the left flank with 5×10^6 PC-3 cells (100 μL; 1:1 ratio of PBS/Matrigel) and tumors were grown to a size of 200-400 mm^3.
# (§2) The mice were euthanized via CO2 inhalation while anesthetized with isoflurane. Tissues were harvested, washed in PBS, blotted dry, weighed, and measured on a Hidex AMG Automatic Gamma Counter.
# [2] = Biodistribution in Daudi tumor-bearing mice; format: in vivo; conditions: male, NOD.Cg-Rag1^tm1MomII2rg^tm1Wjl/SzJ (NRG), mouse, iv, total radioactivity, Daudi xenograft bearing mice
# Description: as §1, §2
# [3] = 1 h blocked (7.5 μg LY2510924 i.p. 15 min before tracer)
smiles,measurement,setting,value
"CC(C)NCCCC[C@@H]1NC(=O)[C@H](Cc2ccc(O)cc2)NC(=O)[C@H](Cc2ccccc2)NC(=O)CC[C@H](C(=O)N[C@@H](CCCCNC(C)C)C(=O)N[C@@H](CCCCNC(=O)[C@@H](CCC(=O)O)NC(=O)[C@@H](CCC(=O)O)NC(=O)[C@@H](CCC(=O)O)NC(=O)CN2CCN(CC(=O)O)CCN(CC(=O)O)CCN(CC(=O)O)CC2)C(N)=O)NC(=O)CNC(=O)[C@H](Cc2ccc3ccccc3c2)NC(=O)[C@@H](CCCNC(=N)N)NC1=O [[^68Ga]Ga-BL20, metal not drawn] (FY[Lys(iPr)][dR][2Nal]G[dE][Lys(iPr)]K([dE-dE-dE-DOTA])-NH2; lactam N-7)",Ratio Tumour:Blood,[1]; 1 h,22.78
same,Ratio Tumour:Bone,[1]; 1 h,54.57
same,Ratio Tumour:Liver,[1]; 1 h,15.68
same,Ratio Tumour:Lung,[1]; 1 h,18.12
same,Ratio Tumour:Muscle,[1]; 1 h,125.40
same,Ratio Tumour:Spleen,[1]; 1 h,18.55
same,Ratio Tumour:Blood,[1]; [3],0.90
same,Ratio Tumour:Bone,[1]; [3],3.88
same,Ratio Tumour:Liver,[1]; [3],1.34
same,Ratio Tumour:Lung,[1]; [3],0.82
same,Ratio Tumour:Muscle,[1]; [3],4.49
same,Ratio Tumour:Spleen,[1]; [3],1.96
same,Ratio Tumour:Blood,[1]; 2 h,113.17
same,Ratio Tumour:Bone,[1]; 2 h,189.39
same,Ratio Tumour:Liver,[1]; 2 h,15.57
same,Ratio Tumour:Lung,[1]; 2 h,37.40
same,Ratio Tumour:Muscle,[1]; 2 h,346.93
same,Ratio Tumour:Spleen,[1]; 2 h,41.58
same,tissue uptake at 1 h,"[2]; Daudi tumour, 1 h, read-out: Biodistribution Daudi (tumour)",9.07 %ID/g
same,tissue uptake at 1 h,"[2]; Daudi tumour, 1 h blocked (7.5 μg LY2510924 i.p. 15 min before tracer), read-out: Biodistribution Daudi (tumour)",0.59 %ID/g
same,tissue uptake at 2 h,"[2]; Daudi tumour, read-out: Biodistribution Daudi (tumour)",8.01 %ID/g
same,tissue uptake at 1 h,"[2]; adrenals, 1 h, read-out: Biodistribution Adrenals",0.35 %ID/g
same,tissue uptake at 1 h,"[2]; adrenals, 1 h blocked (7.5 μg LY2510924 i.p. 15 min before tracer), read-out: Biodistribution Adrenals",0.35 %ID/g
same,tissue uptake at 2 h,"[2]; adrenals, read-out: Biodistribution Adrenals",0.27 %ID/g
same,tissue uptake at 1 h,"[2]; blood, 1 h, read-out: Biodistribution Blood",0.42 %ID/g
same,tissue uptake at 1 h,"[2]; blood, 1 h blocked (7.5 μg LY2510924 i.p. 15 min before tracer), read-out: Biodistribution Blood",0.65 %ID/g
same,tissue uptake at 2 h,"[2]; blood, read-out: Biodistribution Blood",0.08 %ID/g
same,tissue uptake at 1 h,"[2]; bone, 1 h, read-out: Biodistribution Bone",0.17 %ID/g
same,tissue uptake at 1 h,"[2]; bone, 1 h blocked (7.5 μg LY2510924 i.p. 15 min before tracer), read-out: Biodistribution Bone",0.15 %ID/g
same,tissue uptake at 2 h,"[2]; bone, read-out: Biodistribution Bone",0.05 %ID/g
same,tissue uptake at 1 h,"[2]; brain, 1 h, read-out: Biodistribution Brain",0.01 %ID/g
same,tissue uptake at 1 h,"[2]; brain, 1 h blocked (7.5 μg LY2510924 i.p. 15 min before tracer), read-out: Biodistribution Brain",0.02 %ID/g
same,tissue uptake at 2 h,"[2]; brain, read-out: Biodistribution Brain",0.01 %ID/g
same,tissue uptake at 1 h,"[2]; fat, 1 h, read-out: Biodistribution Fat",0.06 %ID/g
same,tissue uptake at 1 h,"[2]; fat, 1 h blocked (7.5 μg LY2510924 i.p. 15 min before tracer), read-out: Biodistribution Fat",0.12 %ID/g
same,tissue uptake at 2 h,"[2]; fat, read-out: Biodistribution Fat",0.01 %ID/g
same,tissue uptake at 1 h,"[2]; heart, 1 h, read-out: Biodistribution Heart",0.15 %ID/g
same,tissue uptake at 1 h,"[2]; heart, 1 h blocked (7.5 μg LY2510924 i.p. 15 min before tracer), read-out: Biodistribution Heart",0.22 %ID/g
same,tissue uptake at 2 h,"[2]; heart, read-out: Biodistribution Heart",0.05 %ID/g
same,tissue uptake at 1 h,"[2]; intestine, 1 h, read-out: Biodistribution Intestine",0.21 %ID/g
same,tissue uptake at 1 h,"[2]; intestine, 1 h blocked (7.5 μg LY2510924 i.p. 15 min before tracer), read-out: Biodistribution Intestine",0.37 %ID/g
same,tissue uptake at 2 h,"[2]; intestine, read-out: Biodistribution Intestine",0.25 %ID/g
same,tissue uptake at 1 h,"[2]; kidney, 1 h, read-out: Biodistribution Kidney",3.58 %ID/g
same,tissue uptake at 1 h,"[2]; kidney, 1 h blocked (7.5 μg LY2510924 i.p. 15 min before tracer), read-out: Biodistribution Kidney",5.92 %ID/g
same,tissue uptake at 2 h,"[2]; kidney, read-out: Biodistribution Kidney",3.02 %ID/g
same,tissue uptake at 1 h,"[2]; liver, 1 h, read-out: Biodistribution Liver",0.58 %ID/g
same,tissue uptake at 1 h,"[2]; liver, 1 h blocked (7.5 μg LY2510924 i.p. 15 min before tracer), read-out: Biodistribution Liver",0.44 %ID/g
same,tissue uptake at 2 h,"[2]; liver, read-out: Biodistribution Liver",0.51 %ID/g
same,tissue uptake at 1 h,"[2]; lung, 1 h, read-out: Biodistribution Lung",0.51 %ID/g
same,tissue uptake at 1 h,"[2]; lung, 1 h blocked (7.5 μg LY2510924 i.p. 15 min before tracer), read-out: Biodistribution Lung",0.71 %ID/g
same,tissue uptake at 2 h,"[2]; lung, read-out: Biodistribution Lung",0.22 %ID/g
same,tissue uptake at 1 h,"[2]; muscle, 1 h, read-out: Biodistribution Muscle",0.08 %ID/g
same,tissue uptake at 1 h,"[2]; muscle, 1 h blocked (7.5 μg LY2510924 i.p. 15 min before tracer), read-out: Biodistribution Muscle",0.13 %ID/g
same,tissue uptake at 2 h,"[2]; muscle, read-out: Biodistribution Muscle",0.02 %ID/g
same,tissue uptake at 1 h,"[2]; pancreas, 1 h, read-out: Biodistribution Pancreas",0.11 %ID/g
same,tissue uptake at 1 h,"[2]; pancreas, 1 h blocked (7.5 μg LY2510924 i.p. 15 min before tracer), read-out: Biodistribution Pancreas",0.16 %ID/g
same,tissue uptake at 2 h,"[2]; pancreas, read-out: Biodistribution Pancreas",0.04 %ID/g
same,tissue uptake at 1 h,"[2]; spleen, 1 h, read-out: Biodistribution Spleen",0.49 %ID/g
same,tissue uptake at 1 h,"[2]; spleen, 1 h blocked (7.5 μg LY2510924 i.p. 15 min before tracer), read-out: Biodistribution Spleen",0.3 %ID/g
same,tissue uptake at 2 h,"[2]; spleen, read-out: Biodistribution Spleen",0.21 %ID/g
same,tissue uptake at 1 h,"[2]; stomach, 1 h, read-out: Biodistribution Stomach",0.05 %ID/g
same,tissue uptake at 1 h,"[2]; stomach, 1 h blocked (7.5 μg LY2510924 i.p. 15 min before tracer), read-out: Biodistribution Stomach",0.24 %ID/g
same,tissue uptake at 2 h,"[2]; stomach, read-out: Biodistribution Stomach",0.05 %ID/g
same,tissue uptake at 1 h,"[2]; testes, 1 h, read-out: Biodistribution Testes",0.15 %ID/g
same,tissue uptake at 1 h,"[2]; testes, 1 h blocked (7.5 μg LY2510924 i.p. 15 min before tracer), read-out: Biodistribution Testes",0.2 %ID/g
same,tissue uptake at 2 h,"[2]; testes, read-out: Biodistribution Testes",0.05 %ID/g

# Reference: patent US20220218852A1, “NOVEL RADIOLABELLED CXCR4-TARGETING COMPOUNDS FOR DIAGNOSIS AND THERAPY” (PROVINCIAL HEALTH SERVICES AUTHORITY, priority 2019, published 2022)
